Here are results for four compounds from patent publication US10039764B2, “Treatment and diagnosis of cancer and precancerous conditions using PDE10A inhibitors and methods to measure PDE10A expression” (University of South Alabama, priority 2013, dated 2018).

pIC50: −log10 of the molar value. Where two headings read alike, the source gives them in different places.

Assay [1] has as its system patients with metastatic disease. The following applies: Lundholm et al. 1994; cited from earlier work.
In a further assay the target is T1, PDE5A (Homo sapiens, UniProt O76074).
T1 construct: purchased BPS Biosciences
Description: IMAP fluorescence polarization PDE assay, PDE5A. In kind it is biochemical. The following applies: substrate cGMP; read-out: Phosphodiesterase Inhibition PDE5A (PDE5) cGMP IC50. On the procedure: (§1) MY5445 was purchased from EMD Millipore. […] Recombinant PDE enzymes were purchased from BPS Biosciences. DMSO was used as the vehicle for testing effects of all compounds.
(§2) PDE enzymatic activity was measured using IMAP fluorescence polarization assay (Molecular Devices. Inc.). […] For experiments involving cell extracts, 2×10^5 cells per well were plated on a six-well tissue culture plate 72 hours prior to cell lysis.
(§3) The effect of the inhibitors on the growth of human colon tumor and normal colonocytes was measured using the Cell Titer Glo Cell Viability Assay (Promega) as described above. The inhibitory potency toward purified recombinant phosphodiesterase enzymes was measured using the IMAP Phosphodiesterase Assay as described in the Materials and Methods section.

Assay [2] deals with HT29 human colon tumor cells. Description: Growth assay (Cell Titer Glo), HT29. In kind it is cell-based. The following applies: Homo sapiens, HT-29.
Source text: (§4) All cell lines comprising the NCI-60 cancer cell panel were obtained from the NCI Developmental Therapeutics Program and maintained under the same standard conditions. The human normal colonocyte (NCM460) cell line was purchased from Incell (San Antonio, Tex.) and grown according to the manufacturer's specifications. The human colon adenoma cell line, LT97, was a gift from Dr. Brigitte Marian (Medical University Vienna, Austria) and grown according to the provider's specifications. Human mammary epithelial cells (HMEC) were purchased from Lonzo and grown using culture conditions as recommended by the supplier.
(§5) Ninety-six (96)-well microtiter plates were seeded at a density of 5,000 cells per well. For drug treatment, cells were treated with compounds or vehicle control, and incubated at 37° C. for 72 hours. For siRNA assays, cells were transfected with siRNA under the same conditions described above. The effect of treatment with inhibitors or siRNA knockdown of PDE10A on growth was measured using the Cell Titer Glo Assay (Promega), which measures viable cell number based on ATP content.
(§6) Effect of various PDE isozyme inhibitors on the growth of human colon tumor cells HCT116 and HT29 was determined using the Cell Titer Glo Cell Viability Assay (Promega) following 72 hours of treatment.
as §3
(ATP-based viability assays read luminescence as a measure of living cells.)

For assay [3], the system named is NCI-60 cancer cell line panel. Kind of assay: Growth inhibition in NCI-60 cancer cell line panel. In kind it is cell-based, human. The following applies: FIG. 13. On the procedure:
Tumor growth inhibitory activity was measured using a cell viability assay following 72 hours of treatment. Potency values (GI50) as measured in each tumor cell line are shown on the y axis.
The human colon tumor cell lines, HCT116, HT29, SW480, SW620, colo741, Caco-2, DLD-1, LS174T, and RKO and human breast tumor cell lines, MCF7, T47D, ZR75, MDA-MB-231, HS578T, and MDA-MB-468 were purchased from ATCC and grown under standard cell culture conditions in RPMI 1640 medium containing 5% fetal bovine serum (FBS) at 37° C. in a humidified atmosphere with 5% CO2. All cell lines comprising the NCI-60 cancer cell panel were obtained from the NCI Developmental Therapeutics Program and maintained under the same standard conditions. The human normal colonocyte (NCM460) cell line was purchased from Incell (San Antonio, Tex.) and grown according to the manufacturer's specifications. The human colon adenoma cell line, LT97, was a gift from Dr. Brigitte Marian (Medical University Vienna, Austria) and grown according to the provider's specifications. […]
Ninety-six (96)-well microtiter plates were seeded at a density of 5,000 cells per well. […] The effect of treatment with inhibitors or siRNA knockdown of PDE10A on growth was measured using the Cell Titer Glo Assay (Promega), which measures viable cell number based on ATP content. […]

The subject of assay [4] is SW480 human colon tumor cells. Description: Growth assay (Cell Titer Glo), SW480. It is filed as cell-based.
Source text: as §4, §5, §3

The next assay relates to human colon tumor cells. Kind of assay: Colon tumor cell growth (Cell Titer Glo), cell line not specified. The following applies: 72 hours of treatment. In kind it is cell-based. Here is the method: as §5, §6
The subject of assay [5] is HCT116 human colon tumor cells. Description: Growth assay (Cell Titer Glo), HCT116. It is filed as cell-based. The following applies: Homo sapiens, HCT-116.
Source text: as §4, §5, §6, §3

For assay [6], the system named is normal colonocytes (NCM460). Description: Growth assay (Cell Titer Glo), normal colonocytes NCM460. In kind it is cell-based, human. The conditions noted are these: for pIC50: Homo sapiens, NCM460.
Source text: as §4, §5, §3

The target of assay [7] is T2, PDE3A (Homo sapiens, UniProt Q14432).
T2 construct: purchased BPS Biosciences
The conditions noted are these: reported; substrate column not distinguished; read-out: Phosphodiesterase Inhibition PDE3A IC50 (reported); cited from earlier work.

In another assay the test system is other PDE isozymes. The conditions noted are these: reported, read-out: Phosphodiesterase Inhibition, Others, IC50 (reported); cited from earlier work.
Assay [8] relates to PDE10A. The following applies: reported; substrate column not distinguished; read-out: Phosphodiesterase Inhibition PDE10A IC50 (reported); cited from earlier work.
In the next assay the target is PDE7A1 (Homo sapiens, UniProt Q13946). The following applies: @ 3 μM; cited from earlier work.
For another assay, the target named is T3, PDE1A (Homo sapiens, UniProt P54750).
T3 construct: purchased BPS Biosciences
Kind of assay: IMAP fluorescence polarization PDE assay, PDE1A. It is filed as biochemical. On the procedure: as §1, §2, §3
On the technique in general: Fluorescence polarisation rises when a labelled molecule tumbles more slowly, as on binding a larger partner.

The target in the next assay is T4, PDE9A (Homo sapiens, UniProt O76083).
T4 construct: purchased BPS Biosciences
Description: IMAP fluorescence polarization PDE assay, PDE9A. The following applies: substrate cGMP; read-out: Phosphodiesterase Inhibition PDE9A cGMP IC50. It is filed as biochemical. On the procedure:
as §1, §2, §3

The target of a further assay is T5, PDE3B (Homo sapiens, UniProt Q13370).
T5 construct: purchased BPS Biosciences
Kind of assay: IMAP fluorescence polarization PDE assay, PDE3B. It is filed as biochemical. The following applies: substrate cGMP; read-out: Phosphodiesterase Inhibition PDE3B cGMP IC50. On the procedure: as §1, §2, §3

The target in assay [9] is T6, PDE10A (Homo sapiens, UniProt Q9Y233).
T6 construct: other: substrate cGMP; recombinant enzyme; other: substrate cAMP
Description: IMAP fluorescence polarization PDE assay, PDE10A. It is filed as biochemical. The following applies: recombinant enzyme. On the procedure:
as §1, §2, §3

The target in assay [10] is T2, PDE3A. Kind of assay: IMAP fluorescence polarization PDE assay, PDE3A. In kind it is biochemical. On the procedure: as §1, §2, §3
The target in a further assay is T7, PDE2A (Homo sapiens, UniProt O00408).
T7 construct: purchased BPS Biosciences
Description: IMAP fluorescence polarization PDE assay, PDE2A. In kind it is biochemical. Here is the method: as §1, §2, §3

The target in the next assay is T8, PDE4B (Homo sapiens, UniProt Q07343).
T8 construct: purchased BPS Biosciences
Description: IMAP fluorescence polarization PDE assay, PDE4B. In kind it is biochemical. The conditions noted are these: substrate cAMP; read-out: Phosphodiesterase Inhibition PDE4B cAMP IC50. On the procedure: as §1, §2, §3

The target of the next assay is T9, PDE11A (Homo sapiens, UniProt Q9HCR9).
T9 construct: purchased BPS Biosciences
Kind of assay: IMAP fluorescence polarization PDE assay, PDE11A. It is filed as biochemical. On the procedure:
as §1, §2, §3

[11] abbreviates: PDE10 Inhibitors table, read-out: Growth Inhibition IC50, HT-29.
[12] abbreviates: PDE10 Inhibitors table, read-out: Growth Inhibition IC50, SW-480.
[13] abbreviates: PDE10 Inhibitors table, read-out: Growth Inhibition IC50, HCT-116.
[14] abbreviates: PDE10 Inhibitors table, read-out: Growth Inhibition IC50, NCM-460.

T2 sequence (Q14432 whole entry): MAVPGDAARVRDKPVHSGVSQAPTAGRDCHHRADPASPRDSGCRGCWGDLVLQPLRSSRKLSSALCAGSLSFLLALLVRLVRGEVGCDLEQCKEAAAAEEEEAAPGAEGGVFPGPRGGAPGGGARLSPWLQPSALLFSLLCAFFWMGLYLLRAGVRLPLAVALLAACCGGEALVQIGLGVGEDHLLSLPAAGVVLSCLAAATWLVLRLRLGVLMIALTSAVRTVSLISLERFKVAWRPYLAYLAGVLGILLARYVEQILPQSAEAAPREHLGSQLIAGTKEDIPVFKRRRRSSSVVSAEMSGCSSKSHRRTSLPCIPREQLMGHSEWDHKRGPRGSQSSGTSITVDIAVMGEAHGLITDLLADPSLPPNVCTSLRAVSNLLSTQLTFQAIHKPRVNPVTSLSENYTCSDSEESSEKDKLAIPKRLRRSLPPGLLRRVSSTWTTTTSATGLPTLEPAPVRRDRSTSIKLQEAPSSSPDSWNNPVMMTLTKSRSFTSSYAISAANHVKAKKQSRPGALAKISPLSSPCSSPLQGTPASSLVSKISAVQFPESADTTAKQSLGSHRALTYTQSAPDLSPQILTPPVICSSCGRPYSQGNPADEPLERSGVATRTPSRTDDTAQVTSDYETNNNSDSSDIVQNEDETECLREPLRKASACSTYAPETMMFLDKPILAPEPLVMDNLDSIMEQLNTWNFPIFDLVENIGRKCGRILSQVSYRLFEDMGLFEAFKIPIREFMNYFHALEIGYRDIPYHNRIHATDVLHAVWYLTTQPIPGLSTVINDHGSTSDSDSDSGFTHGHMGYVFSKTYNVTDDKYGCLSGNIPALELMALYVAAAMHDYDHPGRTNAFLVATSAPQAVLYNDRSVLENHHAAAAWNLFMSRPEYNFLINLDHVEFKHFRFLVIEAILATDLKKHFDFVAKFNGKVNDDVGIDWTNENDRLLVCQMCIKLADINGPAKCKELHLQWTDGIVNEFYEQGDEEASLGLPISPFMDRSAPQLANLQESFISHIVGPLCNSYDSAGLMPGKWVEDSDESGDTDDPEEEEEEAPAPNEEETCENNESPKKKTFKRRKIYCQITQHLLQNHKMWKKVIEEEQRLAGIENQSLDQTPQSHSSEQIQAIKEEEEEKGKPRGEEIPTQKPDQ
T7 sequence (O00408 whole entry): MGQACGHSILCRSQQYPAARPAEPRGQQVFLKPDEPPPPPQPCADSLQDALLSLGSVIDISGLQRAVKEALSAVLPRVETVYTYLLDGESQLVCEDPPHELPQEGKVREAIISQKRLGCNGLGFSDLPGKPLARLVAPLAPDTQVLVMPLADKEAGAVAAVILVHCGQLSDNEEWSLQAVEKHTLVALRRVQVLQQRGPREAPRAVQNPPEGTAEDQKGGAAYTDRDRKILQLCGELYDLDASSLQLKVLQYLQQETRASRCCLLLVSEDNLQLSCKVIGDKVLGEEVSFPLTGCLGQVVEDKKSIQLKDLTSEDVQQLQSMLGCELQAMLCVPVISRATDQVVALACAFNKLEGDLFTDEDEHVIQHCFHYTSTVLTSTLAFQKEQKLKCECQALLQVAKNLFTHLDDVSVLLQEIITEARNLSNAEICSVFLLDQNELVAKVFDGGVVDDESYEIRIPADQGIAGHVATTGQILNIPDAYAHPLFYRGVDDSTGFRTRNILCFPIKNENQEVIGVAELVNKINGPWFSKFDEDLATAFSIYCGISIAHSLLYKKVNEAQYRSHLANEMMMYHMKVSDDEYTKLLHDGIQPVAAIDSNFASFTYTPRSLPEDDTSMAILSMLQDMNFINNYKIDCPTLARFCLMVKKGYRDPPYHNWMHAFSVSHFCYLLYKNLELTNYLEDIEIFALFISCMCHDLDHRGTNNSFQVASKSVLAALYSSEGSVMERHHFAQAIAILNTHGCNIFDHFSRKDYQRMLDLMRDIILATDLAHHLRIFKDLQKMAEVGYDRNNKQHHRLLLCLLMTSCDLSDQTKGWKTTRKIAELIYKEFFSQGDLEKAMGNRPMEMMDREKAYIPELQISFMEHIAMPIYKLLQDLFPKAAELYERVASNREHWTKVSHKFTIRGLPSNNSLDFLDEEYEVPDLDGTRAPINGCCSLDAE
T3 sequence (P54750 whole entry): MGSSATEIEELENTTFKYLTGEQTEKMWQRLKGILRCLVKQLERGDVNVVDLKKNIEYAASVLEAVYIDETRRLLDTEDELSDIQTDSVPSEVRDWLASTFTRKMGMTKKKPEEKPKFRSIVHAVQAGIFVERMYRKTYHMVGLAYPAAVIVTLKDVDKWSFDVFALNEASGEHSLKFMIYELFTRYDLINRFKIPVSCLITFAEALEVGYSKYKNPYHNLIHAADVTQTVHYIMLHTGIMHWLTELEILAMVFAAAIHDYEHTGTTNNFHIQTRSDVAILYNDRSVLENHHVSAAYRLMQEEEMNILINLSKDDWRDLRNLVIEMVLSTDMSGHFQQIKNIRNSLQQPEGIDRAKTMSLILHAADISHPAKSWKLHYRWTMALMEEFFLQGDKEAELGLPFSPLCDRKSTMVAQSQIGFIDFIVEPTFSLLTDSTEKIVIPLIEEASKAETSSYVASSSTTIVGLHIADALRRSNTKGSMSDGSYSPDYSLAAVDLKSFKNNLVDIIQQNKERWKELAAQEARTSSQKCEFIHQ
T6 sequence (Q9Y233 290-1055 limits assumed): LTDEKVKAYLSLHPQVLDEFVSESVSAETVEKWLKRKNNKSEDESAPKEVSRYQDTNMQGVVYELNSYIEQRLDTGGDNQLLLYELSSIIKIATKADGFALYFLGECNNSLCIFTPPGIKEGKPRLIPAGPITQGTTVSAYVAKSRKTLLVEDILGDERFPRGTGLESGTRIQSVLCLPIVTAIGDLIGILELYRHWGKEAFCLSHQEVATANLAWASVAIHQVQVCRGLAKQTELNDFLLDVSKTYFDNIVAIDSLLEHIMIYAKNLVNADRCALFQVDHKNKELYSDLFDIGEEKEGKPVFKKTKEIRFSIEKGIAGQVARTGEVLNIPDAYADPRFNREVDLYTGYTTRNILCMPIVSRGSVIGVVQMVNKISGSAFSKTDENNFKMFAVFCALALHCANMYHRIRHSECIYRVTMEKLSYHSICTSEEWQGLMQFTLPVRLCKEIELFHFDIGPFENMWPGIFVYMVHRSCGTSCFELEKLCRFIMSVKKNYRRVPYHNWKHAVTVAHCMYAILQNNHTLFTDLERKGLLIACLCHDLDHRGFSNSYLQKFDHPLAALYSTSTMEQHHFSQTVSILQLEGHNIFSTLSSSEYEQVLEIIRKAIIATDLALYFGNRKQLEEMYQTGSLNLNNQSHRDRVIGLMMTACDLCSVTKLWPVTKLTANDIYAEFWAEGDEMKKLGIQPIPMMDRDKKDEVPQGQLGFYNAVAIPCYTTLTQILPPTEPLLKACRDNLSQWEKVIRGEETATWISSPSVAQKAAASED
T9 sequence (Q9HCR9 whole entry): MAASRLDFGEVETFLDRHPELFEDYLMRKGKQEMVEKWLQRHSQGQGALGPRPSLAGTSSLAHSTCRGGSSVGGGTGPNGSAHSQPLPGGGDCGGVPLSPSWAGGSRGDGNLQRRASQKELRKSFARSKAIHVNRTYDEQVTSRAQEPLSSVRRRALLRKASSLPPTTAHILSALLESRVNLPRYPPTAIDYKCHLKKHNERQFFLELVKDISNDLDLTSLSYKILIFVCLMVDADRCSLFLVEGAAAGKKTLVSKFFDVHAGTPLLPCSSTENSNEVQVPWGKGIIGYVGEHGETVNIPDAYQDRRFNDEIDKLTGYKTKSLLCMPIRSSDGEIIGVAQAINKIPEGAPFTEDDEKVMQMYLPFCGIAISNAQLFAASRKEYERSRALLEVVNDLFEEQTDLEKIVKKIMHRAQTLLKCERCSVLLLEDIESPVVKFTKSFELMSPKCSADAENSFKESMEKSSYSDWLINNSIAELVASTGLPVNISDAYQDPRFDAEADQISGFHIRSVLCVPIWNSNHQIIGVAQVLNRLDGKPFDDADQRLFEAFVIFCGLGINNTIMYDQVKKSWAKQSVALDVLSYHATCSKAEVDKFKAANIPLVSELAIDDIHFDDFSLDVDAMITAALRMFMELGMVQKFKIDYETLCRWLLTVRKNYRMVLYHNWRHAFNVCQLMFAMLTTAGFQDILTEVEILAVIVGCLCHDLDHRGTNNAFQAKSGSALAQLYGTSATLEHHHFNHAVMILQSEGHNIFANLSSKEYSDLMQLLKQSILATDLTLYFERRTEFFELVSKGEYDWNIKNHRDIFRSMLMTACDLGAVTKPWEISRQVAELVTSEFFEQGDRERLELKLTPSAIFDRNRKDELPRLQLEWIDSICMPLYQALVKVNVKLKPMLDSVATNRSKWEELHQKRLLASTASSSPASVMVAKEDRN
T4 sequence (O76083 whole entry): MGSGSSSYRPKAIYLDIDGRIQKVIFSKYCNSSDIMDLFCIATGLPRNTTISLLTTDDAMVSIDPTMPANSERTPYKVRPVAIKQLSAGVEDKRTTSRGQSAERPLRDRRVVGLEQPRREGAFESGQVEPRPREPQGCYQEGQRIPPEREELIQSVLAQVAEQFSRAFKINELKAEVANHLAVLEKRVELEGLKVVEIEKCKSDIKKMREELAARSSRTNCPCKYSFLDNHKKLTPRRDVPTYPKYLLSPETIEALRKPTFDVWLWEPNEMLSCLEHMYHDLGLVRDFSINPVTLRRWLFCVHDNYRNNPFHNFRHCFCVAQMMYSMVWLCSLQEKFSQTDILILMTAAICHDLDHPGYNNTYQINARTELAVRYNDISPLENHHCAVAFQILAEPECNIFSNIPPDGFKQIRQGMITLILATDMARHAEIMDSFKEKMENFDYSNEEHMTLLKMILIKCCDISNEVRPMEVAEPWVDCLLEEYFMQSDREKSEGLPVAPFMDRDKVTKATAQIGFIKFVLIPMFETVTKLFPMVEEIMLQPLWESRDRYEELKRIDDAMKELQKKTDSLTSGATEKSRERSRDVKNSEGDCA

Consider `COc1ccc2c(c1)c(CC(=O)O)c(C)n2C(=O)c1ccc(Cl)cc1` [indomethacin], for which the extension of survival entry in assay [1] is given as “approximately 9 months”.

Turning to `Cn1cc(-c2ccncc2)c(-c2ccc(OCc3ccc4ccccc4n3)cc2)n1` [PF-2545920, 2-[4-(1-methyl-4-pyridin-4-yl-1H-pyrazol-3-yl)-phenoxymethyl]-quinoline], the pIC50 (commonly the IC50 on a negative log10 scale, so that one unit is a factor of ten) at PDE5A was < 4.30; in [2] (setting [11]), 6.02; in assay [4] (setting [12]) it was 5.43; in assay [5] (setting [13]), 5.08; in assay [6] (setting [14]) it was 4.73. In addition, in assay [3], the “tumor cell growth inhibitory activity in the NCI-60 cancer cell line panel (in words)” value was “broad range of tumor cell growth inhibitory activity”. The GI50 (in general, the concentration that inhibits growth by half) in [3] (Homo sapiens, 72 hours of treatment, average over panel, read-out: average GI50 value in NCI60 cancer cell line panel) is 17.7 µM. Also, in the assay with human colon tumor cells, the “colon tumor cell growth inhibition (in words)” value is listed as “potently inhibited”. Besides, the “growth inhibition in normal colonocytes (in words)” value in assay [6] (72 hours of treatment, FIG. 11D) is “appreciably less effective”.

For `COc1cc2c(cc1OC)-c1c(-c3cccnc3)ncn1CC2` [Compound no. 7, 8,9-dimethoxy-1-(pyridin-3-yl)-5,6-dihydroimidazo[5,1-a]isoquinoline], the negative-log IC50 (pIC50) at PDE3A [7] is 6.35; with other PDE isozymes it was < 5.40; in the assay with PDE10A [8] it was 7.54; in [2] (setting [11]) it was < 4.30; in assay [4] (setting [12]) it was < 4.30; in [5] (setting [13]), < 4.30. Moreover, the “Phosphodiesterase Inhibition PDE7A1 (reported)” value at PDE7A1 was 45%.

Take `COc1cc2ncnc(N3CC[C@@H](Oc4cnc5ccccc5n4)C3)c2cc1OC` [PQ-10, (R)-6,7-dimethoxy-4-{3-(quinoxalin-2-yloxy)pyrrolidin-1-yl}quinazoline]: the negative-log IC50 (pIC50) is 4.53 on PDE1A (substrate cAMP, read-out: Phosphodiesterase Inhibition PDE1A cAMP IC50); 5.06 on PDE1A (substrate cGMP, read-out: Phosphodiesterase Inhibition PDE1A cGMP IC50); < 3.70 at PDE9A; 5.74 on PDE5A; 6.89 in [2] (72 hours of treatment, FIG. 11, read-out: IC50, growth of HT29 colon tumor cells); 6.71 in assay [2] (setting [11]). Moreover, the pIC50 at PDE3B is 6.56; on PDE10A [9] (Phosphodiesterase Inhibition PDE10A cAMP IC50, substrate cAMP) it was 8.27; at PDE10A [9] (Phosphodiesterase Inhibition PDE10A cGMP IC50, substrate cGMP) it was 8.41; on PDE3A [10] (substrate cAMP, read-out: Phosphodiesterase Inhibition PDE3A cAMP IC50), 6.33; at PDE3A [10] (substrate cGMP, read-out: Phosphodiesterase Inhibition PDE3A cGMP IC50) it was 6.68; on PDE2A (substrate cAMP, read-out: Phosphodiesterase Inhibition PDE2A cAMP IC50), 5.15. Moreover, the pIC50 is 5.43 on PDE2A (substrate cGMP, read-out: Phosphodiesterase Inhibition PDE2A cGMP IC50); 6.66 in assay [4] (72 hours of treatment, FIG. 11C, read-out: IC50, growth of SW-480 colon tumor cells); 6.70 in assay [4] (setting [12]); 4.75 on PDE4B; 4.52 on PDE11A (substrate cAMP, read-out: Phosphodiesterase Inhibition PDE11A cAMP IC50); 4.88 at PDE11A (substrate cGMP, read-out: Phosphodiesterase Inhibition PDE11A cGMP IC50). Moreover, the pIC50 in [5] (72 hours of treatment, FIG. 11, read-out: IC50, growth of HCT116 colon tumor cells) is 6.54; in assay [5] (setting [13]), 6.70; in assay [6] (72 hours of treatment, FIG. 11, read-out: IC50, growth of normal colonocytes (NCM460)), 5.08; in [6] (setting [14]) it was < 5.30. The “normal colonocytes (NCM460) less sensitive than colon tumor cell lines” value in assay [6] (NCM460 vs HCT116, SW-480 and HT29) is recorded as “approximately 40 times”.
